Measured values reported in ChEMBL document CHEMBL1201862, “PubChem BioAssay data set” (2004).
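Cells were grown in 96-well plates and exposed to each compound for 48 hours at five concentrations; endpoints were interpolated linearly between bracketing concentrations, or set to the highest concentration if not reached. Abbreviation: GI50, concentration required for 50% inhibition of growth.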 Calls of active or inactive are those of the source. Cut-off read from the data, not from the text of the source: active = GI50 up to about 1.1 µM and inactive = higher.

Key:
Test in all cases: inhibition of tumour cell growth, NCI panel, 48 h
A549 = test system: A549
CAKI-1 = test system: CAKI-1
COLO 205 = test system: COLO 205
HCC 2998 = test system: HCC 2998
HCT-116 = test system: HCT-116
HOP-62 = test system: HOP-62
HT-29 = test system: HT-29
MDA-N = test system: MDA-N
NCI-H522 = test system: NCI-H522
NCI/ADR-RES = test system: NCI/ADR-RES
OVCAR-4 = test system: OVCAR-4
OVCAR-5 = test system: OVCAR-5
OVCAR-8 = test system: OVCAR-8
RPMI-8226 = test system: RPMI-8226
SF-295 = test system: SF-295
SF-539 = test system: SF-539
SK-MEL-5 = test system: SK-MEL-5
SN12C = test system: SN12C
SNB-19 = test system: SNB-19
U-251 = test system: U-251

Measured: GI50

Cc1cc2oc(C)c(S(=O)(=O)NC(=O)Nc3ccc(Cl)cc3)c(=O)c2c(=O)o1
inactive: A549 > 100 µM | CAKI-1 > 100 µM | COLO 205 > 100 µM | HCC 2998 > 100 µM | HCT-116 > 100 µM | HOP-62 > 100 µM | HT-29 > 100 µM | MDA-N > 100 µM | NCI-H522 > 100 µM | NCI/ADR-RES > 100 µM | OVCAR-4 > 100 µM | OVCAR-5 > 100 µM | OVCAR-8 > 100 µM | RPMI-8226 > 100 µM | SF-295 > 100 µM | SF-539 > 100 µM | SK-MEL-5 > 100 µM | SN12C > 100 µM | SNB-19 > 100 µM | U-251 > 100 µM

CC(C)(C)[Si](C)(C)OCC1OC(n2cc(F)c(=O)[nH]c2=O)CC1O[Si](C)(C)C(C)(C)C (centres undefined)
inactive: A549 10.5 µM | CAKI-1 12.5 µM | COLO 205 4.25 µM | HCC 2998 1.72 µM | HCT-116 7.66 µM | HOP-62 13.2 µM | HT-29 7.19 µM | MDA-N 6.21 µM | NCI-H522 3.29 µM | NCI/ADR-RES 16 µM | OVCAR-4 6.46 µM | OVCAR-5 17 µM | OVCAR-8 16.1 µM | RPMI-8226 3.5 µM | SF-295 6.97 µM | SF-539 13.6 µM | SK-MEL-5 3.27 µM | SN12C 2.89 µM | SNB-19 12.4 µM | U-251 8.65 µM

Oc1c(Cl)c(Cl)c(Cl)c(Cl)c1Cl [PENTACHLOROPHENOL]
inactive: A549 23.1 µM | CAKI-1 18.3 µM | COLO 205 31 µM | HCC 2998 > 100 µM | HCT-116 17.4 µM | HOP-62 25.4 µM | HT-29 21.2 µM | MDA-N 23.2 µM | NCI-H522 24 µM | NCI/ADR-RES 17.9 µM | OVCAR-4 21.8 µM | OVCAR-5 18.4 µM | OVCAR-8 20.8 µM | RPMI-8226 22.1 µM | SF-295 17.2 µM | SF-539 21.5 µM | SK-MEL-5 18.3 µM | SN12C 19.1 µM | SNB-19 30.3 µM | U-251 16.1 µM

OC1CCCCCCCCCCC1SCCCCl (centres undefined)
inactive: A549 > 100 µM | CAKI-1 > 100 µM | COLO 205 > 100 µM | HCC 2998 > 100 µM | HCT-116 > 100 µM | HOP-62 > 100 µM | HT-29 > 100 µM | MDA-N > 100 µM | NCI-H522 > 100 µM | NCI/ADR-RES > 100 µM | OVCAR-4 > 100 µM | OVCAR-5 > 100 µM | OVCAR-8 > 100 µM | RPMI-8226 > 100 µM | SF-295 > 100 µM | SF-539 > 100 µM | SK-MEL-5 > 100 µM | SN12C > 100 µM | SNB-19 > 100 µM | U-251 > 100 µM

O=P1(N(CCCl)CCCl)NCCCO1 (centres undefined) [CYCLOPHOSPHAMIDE ANHYDROUS]
inactive: A549 > 239 µM | CAKI-1 > 192 µM | COLO 205 > 250 µM | HCC 2998 193 µM | HCT-116 > 250 µM | HOP-62 > 247 µM | HT-29 > 226 µM | MDA-N > 250 µM | NCI-H522 > 250 µM | NCI/ADR-RES > 250 µM | OVCAR-4 > 250 µM | OVCAR-5 > 239 µM | OVCAR-8 > 238 µM | RPMI-8226 > 250 µM | SF-295 169 µM | SF-539 > 250 µM | SK-MEL-5 > 242 µM | SN12C > 250 µM | SNB-19 > 250 µM | U-251 > 250 µM

O=C(Nc1ccccc1)OCCN=C1c2ccccc2C(Br)C(Br)c2ccccc21 (centres undefined)
inactive: A549 16 µM | CAKI-1 6.49 µM | COLO 205 4.94 µM | HCC 2998 14.8 µM | HCT-116 3.88 µM | HOP-62 15.1 µM | HT-29 5.25 µM | MDA-N 3.82 µM | NCI-H522 5.37 µM | NCI/ADR-RES 11.7 µM | OVCAR-4 5.38 µM | OVCAR-5 16 µM | OVCAR-8 4.09 µM | RPMI-8226 4.37 µM | SF-295 17.1 µM | SF-539 5.07 µM | SK-MEL-5 12.3 µM | SN12C 11.1 µM | SNB-19 14.9 µM | U-251 8.45 µM

CC1C[C@]2(C)C(=O)N(c3ccccc3)C(=N)[C@@H]2N(C)c2ccccc21 (some centres undefined)
inactive: A549 > 100 µM | CAKI-1 > 100 µM | COLO 205 > 100 µM | HCC 2998 > 100 µM | HCT-116 > 100 µM | HOP-62 > 100 µM | HT-29 > 100 µM | MDA-N > 100 µM | NCI-H522 > 100 µM | NCI/ADR-RES > 100 µM | OVCAR-4 > 100 µM | OVCAR-5 > 100 µM | OVCAR-8 > 100 µM | RPMI-8226 > 100 µM | SF-295 > 100 µM | SF-539 > 100 µM | SK-MEL-5 > 100 µM | SN12C 10.8 µM | SNB-19 > 100 µM
